Where a name gives a salt, the structure may show the parent alone.
Test system: TGF-beta
Test: Elimination of TGF-beta-mediated growth inhibition in Mv1Lu cells (Crystal Violet staining)
Format: cell-based
Details: lung epithelial cell line Mv1Lu, 1 ng/ml TGF-beta, 0.5% FCS, two days, absorption at 550 nm
Experimental: In-vitro (Enzyme) Assay for Determination of the Efficacy of the Inhibitors of the Inhibition of TGF-Beta-Mediated Effects
As an example, the ability of the inhibitors to eliminate TGF-beta-mediated growth inhibition is tested.
Cells of the lung epithelial cell line Mv1Lu are sown in a defined cell density in a 96-well microtitre plate and cultivated overnight under standard conditions. Next day, the medium is replaced by medium which comprises 0.5% of FCS and 1 ng/ml of TGF-beta, and the test substances are added in defined concentrations, generally in the form of dilution series with 5-fold steps. The concentration of the solvent DMSO is constant at 0.5%. After a further two days, Crystal Violet staining of the cells is carried out. After extraction of the Crystal Violet from the fixed cells, the absorption is measured spectrophotometrically at 550 nm. It can be used as a quantitative measure of the adherent cells present and thus of the cell proliferation during the culture.

Structure (SMILES): Cc1cccc(-c2nnc3n2-c2ccc(Cl)cc2C(C)CC3)n1 (centres unmarked) [Compound A4, 8-chloro-6-methyl-1-(6-methylpyridin-2-yl)-5,6-dihydro-4H-2,3,10b-triazabenzo[e]azulene]
- IC50 (Mv1Lu, 48 h): 9.9 µM

Structure (SMILES): COc1ccc2c(c1)C(C)CCc1nnc(-c3cccc(C)n3)n1-2 (centres unmarked) [Compound A18, 8-Methoxy-6-methyl-1-(6-methylpyridin-2-yl)-5,6-dihydro-4H-2,3,10b-triazabenzo[e]azulene, trifluoroacetate]
- IC50 (Mv1Lu, 48 h): 3.3 µM

Structure (SMILES): COc1ccc2c(c1)CCC(C)c1nnc(-c3cccc(C)n3)n1-2 (centres unmarked) [Compound A1, 8-methoxy-4-methyl-1-(6-methylpyridin-2-yl)-5,6-dihydro-4H-2,3,10b-triazabenz[e]azulene]
- IC50 (Mv1Lu, 48 h): 3.9 µM

Structure (SMILES): Cc1cccc(-c2nnc3n2-c2ccc(O)cc2CCC3C)n1 (centres unmarked) [Compound A2, 8-hydroxy-4-methyl-1-(6-methylpyridin-2-yl)-5,6-dihydro-4H-2,3,10b-triazabenzo[e]azulene]
- IC50: 0.2 µM

Structure (SMILES): Cc1cccc(-c2nnc3n2-c2ccc(O)cc2CCC3C)n1 (centres unmarked) [Compound A19, 8-Hydroxy-4-methyl-1-(6-methylpyridin-2-yl)-5,6-dihydro-4H-2,3,10b-triazabenzo[e]azulene]
- IC50: 2.5 µM
